According to patent publication US9244057B2, “Multiphase microarrays and uses thereof” (THE REGENTS OF THE UNIVERSITY OF MICHIGAN, priority 2010, dated 2016):
pIC50: −log10 of the molar value.

Test system: MDA-MB-231 breast cancer cells
Assay: cell-exclusion migration assay (aqueous two-phase system patterning, 96-well plate)
Type: cell-based, human
Settings: MDA-MB-231 cells; for effect on motility/migration of cells (in words): blebbistatin 5-200 μM for 18 hrs, then another 12 hrs in culture medium before imaging
Method: 6.4% (w/w) solution of the DEX 500K phase was prepared in culture media and kept at 4° C. until use. The tip magazine of an automated liquid handler (CyBi-Well, CyBio) was loaded with 96 sterile 25 μl pipette tips (CyBio). 75 μl of the DEX solution was pipetted into each well of a 96-well microplate (Corning), which was then placed on the stage of the liquid handler. To load pipette tips with the DEX solution, the stage was slowly raised until the pipette tips were slightly inside the DEX solution. 10 μl of the DEX solution was aspirated into the tips at a rate of 5 μl/s. The loaded tips were brought within 200 μm of the bottom of the wells of an empty microplate and 0.8 μl of the DEX solution was dispensed onto the surface at a rate of 0.5 μl/s to form circular droplets. The microplate was kept in a culture hood for at least 24 hrs to allow the droplets to dry. Images of the dried droplets were captured using a bright-field microscope (Nikon, TS-200). The Feret diameters of the droplets were determined using the “Analyze Particles” function of ImageJ (NIH). Droplets whose Feret diameters were not within ˜1% of the desired mean diameter were excluded from use in the assay. The entire printing and drying process was performed in a sterile culture hood.
Three different human cancer cell lines were used: MDA-MB-231 breast cancer cells (ATCC) were cultured in DMEM medium supplemented with 10% heat-inactivated fetal bovine serum (HI-FBS, Invitrogen), 1% glutamine (Invitrogen), and 1% antibiotic. A549 lung cancer cells (ATCC) were cultured using F-12K medium (ATCC) supplemented with 10% HI-FBS and 1% antibiotic. PC-3 prostate cancer cells were maintained in DMEM supplemented with 10% HI-FBS and 1% antibiotic. Cells were maintained in a cell culture incubator at 37° C. with 5% CO2 and 95% humidity. When at desired confluence, cells were washed with PBS and Hank's-based enzyme-free cell dissociation buffer was added to the flask. Cells were incubated for 30 min and then collected and suspended in complete growth medium. After centrifuging down for 5 min at 4° C. and 1000 rpm, cells were resuspended in appropriate volume of the culture medium to give a density of 2×10^6 cells/ml.
5.0% (w/w) solution of the PEG 35K phase was prepared in culture media and kept at 4° C. until use. This solution was added to the cell suspension at a 1:1 (v/v) ratio to give a final PEG phase concentration of 2.5%. Prior to this step, cell suspension density was adjusted by addition of culture media to result in a final density of 4.5×10^4 MDA-MB-231 cells, 4.0×10^4 A549 cells, and 4.5×10^4 PC-3 cells after addition of the PEG-containing media. These cell densities were selected from preliminary experiments that evaluated the number of cells required to form a confluent monolayer per unit surface area. 80 μl of the resulting solution was added to each well of a 96-well plate, which was incubated at 37° C. with 5% CO2 and 95% humidity overnight (12 hrs). Then, the two-phase media was washed out and replaced with regular culture media. This was set as the time zero of the migration experiment.
After allowing MDA-MB-231 cells to spread and form a confluent monolayer around the cell excluded gaps, they were treated with (±)-blebbistatin at different concentrations in the range 5-200 μM or anti-cancer drugs paclitaxel, colchicine, and nocodazole in the concentration range of 1-1000 nM. Cells were incubated for 18 hrs in the presence of blebbistatin, washed with PBS once, and regular culture medium was added. Incubation continued for another 12 hrs before imaging. To study the effect of anti-cancer drugs, cells were incubated with each drug for 2 hrs, washed with PBS, and then supplied with culture medium. Imaging was performed after 30 hrs of incubation. Experiments were set in 30 replicates. All reagents were purchased from Sigma.
After migration experiments were complete, cells were stained with a 5 μM Calcein AM and the plates were incubated at 37° C. for 30 min. […]

[1] = 2 hr treatment, tested 1-1000 nM, imaging after 30 hrs

SMILES: COC(=O)Nc1nc2ccc(C(=O)c3cccs3)cc2[nH]1 [Nocodazole, nocodazole]
- reduction of migration [1]: less than 20%

SMILES: CC(=O)O[C@H]1C(=O)[C@@]2(C)[C@H]([C@H](OC(=O)c3ccccc3)[C@]3(O)C[C@H](OC(=O)[C@H](O)[C@@H](NC(=O)c4ccccc4)c4ccccc4)C(C)=C1C3(C)C)[C@]1(OC(C)=O)CO[C@@H]1C[C@@H]2O [Paclitaxel, paclitaxel]
- concentration range showing potency for inhibiting cell motility [1]: 0.01 to 0.1 µM

SMILES: Cc1ccc2c(c1)C(=O)C1(O)CCN(c3ccccc3)C1=N2 (racemic) [blebbistatin, (±)-blebbistatin]
- effect on motility/migration of cells (in words): dose-dependent response
- effect on motility/migration of cells (in words) (listed as Blebbistatin): dose-dependent inhibition
- pIC50 (six concentrations 5-200 μM for 18 hrs, BioDataFit software, read-out: IC50 for inhibition of cell migration): 4.50

SMILES: COc1cc2c(c(OC)c1OC)-c1ccc(OC)c(=O)cc1[C@@H](NC(C)=O)CC2 [colchicine]
- effect on cell motility (in words) (2 hr treatment, tested 1-1000 nM, imaging after 30 hrs, especially above 100 nM): reduced cell motility in a dose-dependent manner
